Columns and labels:
Type in all cases: biochemical
KRas G12V = biological target: T1, KRas G12V (Homo sapiens, UniProt P01116, G12V); assay: SOS1-Catalyzed Nucleotide Exchange Assay, KRas G12V (Method 1); details: 5 nM KRas G12V (aa 1-169, GDP-loaded), 50 nM SOS1
T1 construct: Biotinylated KRas G12V (aa 1-169) loaded with GDP nucleotide; biotin (biotinylated)
Description: KRas G12V [Method 1]: Biotinylated KRas G12V (aa 1-169) loaded with GDP nucleotide and Streptavidin-Europium (SA-EU, Columbia Biosciences) were preincubated in assay buffer (20 mM HEPES pH 7.4, 150 mM NaCl, 5 mM MgCl2, 1 mM DTT, 0.01% Brij-35, 0.3 mg/mL BSA) on ice for 30 min. Separately SOS1 (aa 546-1049) and EDA-GTP-DY647P1 (Jena Bioscience) were preincubated in assay buffer on ice for 30 min. After pre-incubation, 5 μL buffer and 5 μL of KRas G12V-SA-Eu were added to each well of a white, low-volume, non-binding 384-well plate. Compounds were then added to respective wells with a Tecan D300e liquid dispenser. A 10-point concentration response curve for each compound was prepared with appropriate top concentration (1 μM, 10 μM, or 300 μM) and incubated for 30 min. 5 μL of SOS1-EDA-GTP-D467P1 was added to start the nucleotide exchange reaction. Final concentration in the assay were 5 nM KRas G12V, 50 nM SOS1 (aa 564-1049). The reaction was allowed to proceed for 60-90 minutes after which the plate was read on a PHERAstar FSX plate reader (exc: 337 nm, em 1: 665 nm, em 2: 620 nm). After normalization of the raw data (ratio of Signal665nm/Signal620nm) the data was fit to a four-parameter logistic curve in GraphPad Prism (v9.4.1).

KRas G12R = biological target: T2, KRas G12R (Homo sapiens, UniProt P01116, G12R); assay: SOS1-Catalyzed Nucleotide Exchange Assay, KRas G12R; details: 10 nM KRas G12R (1-169, GDP-loaded), 200 nM SOS1
T2 construct: KRas G12R (1-169) loaded with GDP nucleotide; biotin (biotinylated)
T2 sequence (P01116 1-169 G12R): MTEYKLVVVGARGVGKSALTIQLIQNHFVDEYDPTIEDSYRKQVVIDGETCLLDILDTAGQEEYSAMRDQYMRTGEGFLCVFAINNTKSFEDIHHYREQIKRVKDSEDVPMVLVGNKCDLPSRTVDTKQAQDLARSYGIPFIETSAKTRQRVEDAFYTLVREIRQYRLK
Description: (§1) KRas G12R and WT: Compounds were pre-dispensed using acoustic transfer technology into a black, low volume 384-well assay plate. A 10-point dose response of each compound was performed with a 30 μM top dose. Biotinylated KRas WT(1-169) or KRas G12R (1-169) loaded with GDP nucleotide was mixed with Streptavidin-Tb cryptate (Cisbio) in assay buffer (20 mM HEPES pH 7.4, 150 mM NaCl, 2 mM MgCl2, and 0.005% CA680) to produce a 1.5× solution. 10 μL of the 1.5× KRas-cryptate solution was added to wells of a black, low-volume 384-well assay plate. The KRas/cryptate-compound mixture was incubated for 1 hour at room temperature. A 3× solution of SOS1 (564-1049) and EDA-GTP-DY-647P1 (Jena Bioscience) was prepared in assay buffer. 5 μL of the SOS1-labeled GTP solution was added to the wells to initiate the nucleotide exchange reaction. The final concentration of KRas G12R and SOS1 were 10 nM and 200 nM, respectively. The final concentration of KRas WT and SOS1 were 20 nM and 10 nM, respectively. The plate was allowed to incubate for 1 hr, then time resolved fluorescence was read on a PHERAstar plate reader equipped with a filter module with excitation=337 nm and emission 1=620 nm, emission 2=665 nm. The TR-FRET signal was calculated as the ratio of fluorescence intensity [emission 665 nm]/[emission 620 nm]. IC50 values were calculated using a four-parameter, variable response sigmoidal dose response curve fit in PerkinElmer Signals VitroVivo.

KRas WT = biological target: T3, KRas WT (Homo sapiens, UniProt P01116); assay: SOS1-Catalyzed Nucleotide Exchange Assay, KRas WT; details: 20 nM KRas WT (1-169, GDP-loaded), 10 nM SOS1
T3 construct: Biotinylated KRas WT(1-169); biotin (biotinylated)
T3 sequence (P01116 1-169): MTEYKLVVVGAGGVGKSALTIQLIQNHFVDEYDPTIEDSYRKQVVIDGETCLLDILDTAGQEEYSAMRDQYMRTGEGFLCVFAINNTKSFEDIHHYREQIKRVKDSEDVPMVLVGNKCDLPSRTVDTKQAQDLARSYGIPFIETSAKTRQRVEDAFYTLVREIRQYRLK
Description: as §1

T1 sequence (P01116 1-169 G12V): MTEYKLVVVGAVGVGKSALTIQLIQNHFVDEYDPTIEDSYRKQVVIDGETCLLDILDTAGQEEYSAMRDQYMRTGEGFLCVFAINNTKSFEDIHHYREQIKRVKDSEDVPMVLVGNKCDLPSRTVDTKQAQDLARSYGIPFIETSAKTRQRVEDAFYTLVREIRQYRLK

SMILES	IC50 (KRas G12V) [nM]	IC50 (KRas G12R) [nM]	KRas WT IC50 (nM) (KRas WT)	IC50 (KRas WT) [nM]
O=C1CCCCc2c(Cl)cc(O)cc2-c2ncc3c(nc(OC[C@@]45CCCN4C[C@H](F)C5)nc3c2F)N2CCC[C@H](CCN1)C2 (single isomer, unassigned) [Compound 115b]	≤ 100	≤ 100	++ ++	–
O=C1CCCCc2c(Cl)cc(O)cc2-c2ncc3c(nc(OC[C@@]45CCCN4C[C@H](F)C5)nc3c2F)N2CCC[C@@H](CCN1)C2 (single isomer, unassigned) [Compound 115c]	≤ 100	≤ 100	–	≤ 100
O=C1CCc2c(Cl)cc(O)cc2-c2ncc3c(nc(OC[C@@]45CCCN4C[C@H](F)C5)nc3c2F)N2CCCC(CCN1)C2 (stereo partly drawn) [Compound 113a, 3^3-chloro-2^8-fluoro-2^2-(((2R,7aS)-2-fluorotetrahydro-1H-pyrrolizin-7a(5H)-yl)methoxy)-3^5-hydroxy-7-aza-2(4,7)-pyrido[4,3-d]pyrimidina-1(1,3)-piperidina-3(1,2)-benzenacyclononaphan-6-one]	1000 to 10000	10000 to 30000	–	1000 to 10000
O=C1CCCCc2c(Cl)cc(O)cc2-c2ncc3c(nc(OC[C@@]45CCCN4C[C@H](F)C5)nc3c2F)N2CCCC(CCN1)C2 (stereo partly drawn) [Compound 115a, 3^3-chloro-2^8-fluoro-2^2-(((2R,7aS)-2-fluorotetrahydro-1H-pyrrolizin-7a(5H)-yl)methoxy)-3^5-hydroxy-9-aza-2(4,7)-pyrido[4,3-d]pyrimidina-1(1,3)-piperidina-3(1,2)-benzenacycloundecaphan-8-one]	≤ 100	≤ 100	–	≤ 100
Oc1cc2c3c(c(F)ccc3c1)-c1cn(nn1)CCCCC1CCCN(C1)c1nc(OC[C@@]34CCCN3C[C@H](F)C4)nc3c(F)c-2ncc13 (stereo partly drawn) [Compound 125a, (Z)-2^8,3^7-difluoro-2^2-(((2R,7aS)-2-fluorotetrahydro-1H-pyrrolizin-7a(5H)-yl)methoxy)-4^1H-2(4,7)-pyrido[4,3-d]pyrimidina-1(1,3)-piperidina-4(4,1)-triazola-3(1,8)-naphthalenacyclooctaphan-3^3-ol]	10000 to 30000	10000 to 30000	–	1000 to 10000
Oc1ccc2c(c1)-c1ncc3c(nc(OC[C@@]45CCCN4C[C@H](F)C5)nc3c1F)N1CCCC(CCCCCCC2)C1 (stereo partly drawn) [Compound 143a, 2^8-fluoro-2^2-(((2R,7aS)-2-fluorotetrahydro-1H-pyrrolizin-7a(5H)-yl)methoxy)-2(4,7)-pyrido[4,3-d]pyrimidina-1(1,3)-piperidina-3(1,2)-benzenacyclodecaphan-3^5-ol]	100 to 1000	100 to 1000	–	≤ 100
Oc1cc(Cl)c2c(c1)-c1ncc3c(nc(OC[C@@]45CCCN4C[C@H](F)C5)nc3c1F)N1CCCC(O)(CCCCCC2)C1 (stereo partly drawn) [Compound 151a, 3^3-chloro-2^8-fluoro-2^2-(((2R,7aS)-2-fluorotetrahydro-1H-pyrrolizin-7a(5H)-yl)methoxy)-2(4,7)-pyrido[4,3-d]pyrimidina-1(1,3)-piperidina-3(1,2)-benzenacyclononaphane-1^3,3^5-diol]	≤ 100	≤ 100	–	≤ 100
Oc1cc(Cl)c2c(c1)-c1ncc3c(nc(OC[C@@]45CCCN4C[C@H](F)C5)nc3c1F)N1CCCC(O)(CCCCCCC2)C1 (stereo partly drawn) [Compound 152a, 3^3-chloro-2^8-fluoro-2^2-(((2R,7aS)-2-fluorotetrahydro-1H-pyrrolizin-7a(5H)-yl)methoxy)-2(4,7)-pyrido[4,3-d]pyrimidina-1(1,3)-piperidina-3(1,2)-benzenacyclodecaphane-1^3,3^5-diol]	≤ 100	≤ 100	–	≤ 100
Oc1cc(Cl)c2c(c1)-c1ncc3c(nc(OC[C@@]45CCCN4C[C@H](F)C5)nc3c1F)N1CCCC(Cc3noc(n3)CCCCCC2)C1 (stereo partly drawn) [Compound 153a, (Z)-1^3-chloro-2^8-fluoro-2^2-(((2R,7aS)-2-fluorotetrahydro-1H-pyrrolizin-7a(5H)-yl)methoxy)-5(3,5)-oxadiazola-2(7,4)-pyrido[4,3-d]pyrimidina-3(1,3)-piperidina-1(1,2)-benzenacycloundecaphan-1^5-ol]	100 to 1000	100 to 1000	–	100 to 1000

Reference: US20260364089A1, “PYRIDOPYRIMIDINE KRAS INHIBITORS” (Treeline Biosciences, Inc., priority 2022, published 2026)
